Here are results for 2 molecules from patent US20120122848A1, “(+)-3-HYDROXYMORPHINAN DERIVATIVES AS NEUROPROTECTANTS” (GREEN CROSS CORPORATION, priority 2009, published 2012).

pEC50: −log10 of the molar value.

Series [1] deals with SirT1. The series is described as follows: RT-PCR analysis of target gene expression under glutamate toxicity in HT22 cells. The series is classed as cell-based, mouse. The settings on record: 10 mM glutamate, 18 hrs. The protocol:
HT22 cells (1.5×10^7) plated in a 100 mm dish were treated with 10 mM glutamate in the absence or presence of 3-HM.HBr or the compound of Example 26 and incubated for 18 hrs. Oligonucleotide primers used for the PCR amplification were DJ-1 (PARK7), LRRK2 (Leucine-rich repeat kinase 2), PINK1 (PTEN induced putative kinase 1), SirT1 (silent mating type information regulation 2 homolog 1 (S. cerevisiae)), SirT2 (silent mating type information regulation 2 homolog 2 (S. cerevisiae)), and others. PCR products were electrophoresed on 2% agarose gels and detected by ethidium bromide [Kumiko I. et al., The Activation of Dopamine D4 Receptors Inhibits Oxidative Stress-Induced Nerve Cell Death., J. Neurosci., 2001].
FIG. 2A and FIG. 2B show the results of reverse transcription polymerase chain reaction.
In FIG. 2A, Lane 1 is mock, Lane 2 is the group treated with 10 mM Glutamate, and Lane 3 is the group treated with 10 mM Glutamate and 100 uM 3-HM.HBr. […]

The nature of series [2]: Cell cytotoxicity test: protection of HT22 cells against glutamate toxicity (EC50) and cytotoxicity of the compounds (CC50), MTT. Conditions: mouse, HT22 cells (mouse hippocampal neuron). Type of series: cell-based, mouse. In outline:
(§1)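 Cells plated 16 hrs, then exposed to 5 mM glutamate plus a compound concentration series for 24 hrs in DMEM with 10% FBS. Viability by MTT (4 hrs), absorbance at 450 nm; EC50 is protection against glutamate toxicity, CC50 is compound cytotoxicity.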

Series [3] deals with HT22 cells (mouse hippocampal neuron). Described as above. Conditions: Mus musculus, HT-22, five millimolar glutamate, 24 hrs, read-out: EC50 (neuroprotective effect against glutamate toxicity). Type of series: cell-based. In outline: as §1
Series [4] can be described thus: Total antioxidant activity assay (TEAC; metmyoglobin, 2,2′-azinobis(3-ethylbenzoline 6-sulfonate), H2O2). Conditions: at 100 μM. The protocol:
Briefly, 1 ml of reaction mixture including 2.5 μM metmyoglobin, 150 μM 2,2′-azinobis(3-ethylbenzoline 6-sulfonate), 75 μM H2O2, and 0.84% sample or Trolox (for standard) in PBS was incubated for 7.5 min at 30° C.; then the absorbance at 734 nm was measured. The data are normalized to 1 mM Trolox (TEAC activity) [Kumiko I. et al., The Activation of Dopamine D4 Receptors Inhibits Oxidative Stress-Induced Nerve Cell Death., J. Neurosci., 2001]. The EC50 values were analyzed statistically using Prizm® (GraphPad Software Inc., San Diego, Calif., USA).

Series [5] deals with SirT1. The series is described as follows: Western blotting analysis of SirT1 in glutamate-treated HT22 cells. The series is classed as cell-based, mouse. The settings on record: 10 mM glutamate, 18 hrs. The protocol: HT22 cells (1.5×10^7) plated in a 100 mm dish were treated with 10 mM glutamate in the absence or presence of 3-HM.HBr or the compound of Example 26, and incubated for 18 hrs. The cells were collected by scraping in a sample buffer (3% SDS, 1% glycerol, 0.5% 2-mercaptoethanol, 0.05% bromophenol blue, and 80 mM Tris-HCl buffer, pH 6.8, with complete protease inhibitors). The resulting suspention was centrifuged and the pellets thus obtained were re-suspended in the sample buffer. The samples were heated for 3 min in boiling water, fractionated on 4-20% polyacrylamide gels, and electroblotted onto membranes. SirT1 affinity purified polyclonal antibody was used as the primary antibody. Immunoreactive bands were detected with the ECL (Amersham Pharmacia Biotech, Arlington Heights, Ill.) Western blotting detection reagents [Kumiko, I. et al., The Activation of Dopamine D4 Receptors Inhibits Oxidative Stress-Induced Nerve Cell Death., J. Neurosci., 2001, 21(16):6069-6076]. […]

In a further series the test system is HT22 cells. Kind of series: ROS measurement using DCFDA in glutamate-treated HT22 cells. Type of series: cell-based. Conditions: Mus musculus, HT-22, 5 mM glutamate, 8 hrs. The procedure:
HT22 cells (1×10^4) plated in a 96-well plate were treated with 5 mM glutamate in the absence or presence of 3-HM.HBr or the compound of Example 26, and incubated for 8 hrs. After washing with PBS, cells were stained with 10 μM 2,7-dichlorodihydrofluorescein diacetate (DCFDA) in HBSS (Hank's balanced salt solution, Gibco) for 30 min in the dark. Then the cells were washed with PBS twice and extracted with 1% Triton X-100 in PBS for 10 min at 37° C. Fluorescence was recorded with the excitation wavelength of 490 nm and the emission wavelength of 525 nm (Infinite M200, TECAN) [Da-Qing, et. al., Anti-oxidant and anti-inflammatory activities of macelignan in murine hippocampal cell line and primary culture of rat microglia cells, BBRC, 2005, 331, 1264-1269]. The EC50 values were analyzed statistically using Prizm® (GraphPad Software Inc., San Diego, Calif., USA).

Series [6] deals with dopamine (DA) neurons in substantia nigra pars compacta. The settings on record: MPTP model, daily injections; cited from earlier work.

Regarding `Oc1ccc2c(c1)[C@]13CCCC[C@@H]1[C@H](C2)NCC3` [3-HM•HBr, (+)-3-hydroxymorphinan HBr, reference compound], in the series with SirT1 [1], the “SirT1 expression levels (RT-PCR)” value is “decreased SirT1 expression levels were elevated”. Moreover, in series [2], the CC50 – broadly, the concentration at which the toxic effect on the cells reaches its halfway point – at 24 h was greater than 100 µM. For the same molecule, the pEC50 – broadly, the EC50 on a negative log10 scale, so that one unit is a factor of ten – in series [3] is 4.50; in the series with HT22 cells, 4.41. Also, in series [4], the “inhibition (total antioxidant activity)” value was determined as 22.4%. Further, in the series with SirT1 [5], the “SirT1 expression (Western blotting)” value was “this decreasing was protected”.
As for `Oc1ccc2c(c1)[C@]13CCCC[C@@H]1[C@H](C2)NCC3` [(+)-3-HM, (+)-3-Hydroxymorphinan], in series [6], the “DA levels in striatum” value is “DA levels in striatum has been restored” and the “protection of DA neurons in substantia nigra pars compacta” value is on record as “dopamine (DA) neurons in substantia nigra pars compacta have been protected”.
